Measurements published in ChEMBL document CHEMBL4732261, “Design and synthesis of novel (S)-Naproxen hydrazide-hydrazones as potent VEGFR-2 inhibitors and their evaluation in vitro/in vivo breast cancer models” (Bioorg Med Chem, 2021).
The source made the active and inactive calls. The rule behind the calls is not given here.

Tests used:
[1] = system: MDA-MB-231; assay: Induction of cell cycle arrest in human MDA-MB-231 cells assessed as decrease in accumulation of cells at G0/G1 phase after 24 hrs by propidium iodide staining base flow cytometric analysis; assay type: functional, cell-based; details: dose 12.5-50 µM
[2] = system: MDA-MB-231; assay: Induction of morphological changes in human MDA-MB-231 cells assessed as nuclear condensation at IC50 concentration after 48 hrs by DAPI staining based fluorescent microscopic analysis; assay type: functional, cell-based
[3] = system: MDA-MB-231; assay: Induction of cell cycle arrest in human MDA-MB-231 cells assessed as increase in accumulation of cells at S phase at 12.5 to 50 uM after 24 hrs by propidium iodide staining base flow cytometric analysis relative to control; assay type: functional; details: dose 12.5-50 µM
[4] = system: HEK293; assay: Cytotoxicity against HEK293 cells assessed as reduction in cell viability after 48 hrs by MTT assay; assay type: cell-based; details: Homo sapiens, HEK293, 48 h
[5] = Toxicity in Balb/C mouse assessed as mortality at 30 to 120 mg/kg after 24 hrs; assay type: organism-based; details: in vivo, dose 30-120 mg/kg
[6] = Cytotoxicity against human OSE cells assessed as reduction in cell viability after 48 hrs by MTT assay; assay type: cell-based; details: HOSE
[7] = system: MDA-MB-231; assay: Induction of cell cycle arrest in human MDA-MB-231 cells assessed as accumulation of cells at G2M phase at 12.5 to 50 uM after 24 hrs by propidium iodide staining base flow cytometric analysis relative to control; assay type: functional; details: dose 12.5-50 µM
[8] = system: MDA-MB-231; assay: Down regulation of VEGFR2 in human MDA-MB-231 cells at IC50 concentration after 48 hrs by Western blot analysis; assay type: functional, cell-based
[9] = system: MDA-MB-231; assay: Induction of cell cycle arrest in human MDA-MB-231 cells assessed as accumulation of cells at G0/G1 phase at 50 uM after 24 hrs by propidium iodide staining base flow cytometric analysis (reference value: 73.2%); assay type: functional
[10] = system: MDA-MB-231; assay: Induction of cell cycle arrest in human MDA-MB-231 cells assessed as increase in accumulation of cells at M phase at 12.5 to 50 uM after 24 hrs by propidium iodide staining base flow cytometric analysis; assay type: functional, cell-based; details: dose 12.5-50 µM
[11] = Toxicity in Balb/C mouse implanted with EAC cells assessed as mortality at 60 to 120 mg/kg after 14 days; assay type: organism-based; details: in vivo, 336 h, dose 60-120 mg/kg, time 14 day
[12] = system: MDA-MB-231; assay: Induction of apoptosis in human MDA-MB-231 cells assessed as decrease in Bcl2 protein expression at IC50 concentration after 48 hrs by Western blot analysis; assay type: functional, cell-based
[13] = system: Ehrlich; assay: Antitumour activity against mouse EAC cells implanted in Balb/C mouse assessed as reduction in tumour volume at 60 to 120 mg/kg after 14 days; assay type: functional, organism-based; details: dose 60-120 mg/kg, time 14.0 day
[14] = system: MDA-MB-231; assay: Cytotoxicity against human MDA-MB-231 cells assessed as reduction in cell viability after 48 hrs by MTT assay; assay type: functional, cell-based; details: MDA-MB-231, 48 h
[15] = system: MDA-MB-231; assay: Induction of morphological changes in human MDA-MB-231 cells assessed as DNA fragmentation at IC50 concentration after 48 hrs by DAPI staining based fluorescent microscopic analysis; assay type: functional, cell-based
[16] = system: MDA-MB-231; assay: Cytotoxicity against human MDA-MB-231 cells assessed as reduction in cell viability at 25 to 400 uM after 48 hrs by MTT assay; assay type: functional, cell-based; details: dose 25-400 µM
[17] = system: MCF7; assay: Cytotoxicity against human MCF7 cells assessed as reduction in cell viability after 48 hrs by MTT assay; assay type: functional, cell-based; details: MCF7, 48 h

Structure (SMILES)	IC50 [14] [µM]	IC50 [17] [µM]	also measured
COc1ccc2cc([C@H](C)C(=O)N/N=C/c3ccccc3OC(F)(F)F)ccc2c1	22.4	59.8	Activity [1]: Dose-dependent effect; Activity [2]: Active; Activity [3]: 12.3%; IC50 [4]: 162 µM; Activity [5]: Non-Toxic; IC50 [6]: 49 µM; Activity [7]: 14.5%; Activity [8]: Active; Activity [9]: 18.2%; Activity [10]: Active; Activity [11]: Non-Toxic; Activity [12]: Active; Activity [13]: Active; Activity [15]: Active; Activity [16]: Active
COc1ccc2cc([C@H](C)C(=O)O)ccc2c1 [NAPROXEN]	> 400	> 400	Activity [2]: inactive; Activity [15]: inactive
COc1ccc2cc([C@H](C)C(=O)N/N=C/c3c(F)cccc3F)ccc2c1	132	91.2	
COc1ccc2cc([C@H](C)C(=O)N/N=C/c3cc(C(F)(F)F)cc(C(F)(F)F)c3)ccc2c1	353	185	
COc1ccc2cc([C@H](C)C(=O)N/N=C/c3cccc(C(F)(F)F)c3)ccc2c1	55.5	69.4	
COc1ccc2cc([C@H](C)C(=O)N/N=C/c3ccc(C#N)cc3)ccc2c1	389	60.9	
CCc1ccc(/C=N/NC(=O)[C@@H](C)c2ccc3cc(OC)ccc3c2)o1	178	260	
COc1ccc2cc([C@H](C)C(=O)N/N=C/c3ccc([N+](=O)[O-])o3)ccc2c1	> 400	41.8	
COc1ccc2cc([C@H](C)C(=O)N/N=C/c3ccc(OC(F)(F)F)cc3)ccc2c1	79.5	> 400	
COc1ccc2cc([C@H](C)C(=O)N/N=C/c3cccn3C)ccc2c1	129	352	
COc1cccc2c1C(=O)c1c(O)c3c(c(O)c1C2=O)C[C@@](O)(C(=O)CO)C[C@@H]3O[C@H]1C[C@H](N)[C@H](O)[C@H](C)O1 [DOXORUBICIN]	0.06		Activity [8]: Active; Activity [12]: Active
COc1ccc2cc([C@H](C)C(=O)N/N=C/c3cc(Br)cs3)ccc2c1	183	> 400	
COc1ccc2cc([C@H](C)C(=O)N/N=C/c3cccc(OC(F)(F)F)c3)ccc2c1	157	> 400	
COc1ccc2cc([C@H](C)C(=O)N/N=C/c3ccc(C(F)(F)F)cc3)ccc2c1	67	147	
